What is called EC50 is the concentration that produces a half-maximal response. Broadly, the IC50 is the midpoint of a concentration-inhibition curve. Usually AC50 stands for the midpoint of the concentration-response curve, whichever way the signal moves.

Active and inactive are the calls of the source.

The target of test [1] is T1, Heat shock factor protein 1 (Mus musculus, UniProt P38532).
T1 sequence (P38532 whole entry): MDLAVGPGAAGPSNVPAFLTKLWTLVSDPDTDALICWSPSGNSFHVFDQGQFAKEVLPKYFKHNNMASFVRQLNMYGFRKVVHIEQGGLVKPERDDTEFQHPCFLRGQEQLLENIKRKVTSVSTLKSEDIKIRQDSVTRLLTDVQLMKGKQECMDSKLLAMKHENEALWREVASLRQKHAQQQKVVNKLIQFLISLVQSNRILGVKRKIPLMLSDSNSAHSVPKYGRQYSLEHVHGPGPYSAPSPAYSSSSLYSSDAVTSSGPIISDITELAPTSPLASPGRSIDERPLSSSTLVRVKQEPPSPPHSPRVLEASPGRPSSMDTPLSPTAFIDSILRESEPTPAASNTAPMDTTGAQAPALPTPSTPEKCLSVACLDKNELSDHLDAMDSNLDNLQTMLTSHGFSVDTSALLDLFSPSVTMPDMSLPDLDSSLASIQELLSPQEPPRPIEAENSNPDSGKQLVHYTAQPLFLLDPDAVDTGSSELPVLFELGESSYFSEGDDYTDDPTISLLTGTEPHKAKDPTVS
Briefly: enhancement of HSF1-driven luciferase signal – cell-based, NIH3T3, luminescence, dose retest, confirmation (AID 435004).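 Further: stress induced by proteasome inhibitor MG132 added 30 min after compound; luciferase reporter driven by HSF1 response element in NIH3T3 cells; actives raise luminescence as potentiators of the MG132 stress response.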 The test is classed as functional.

Test [2] deals with T2, Aminopeptidase N (Plasmodium falciparum FcB1/Columbia, UniProt O96935).
T2 sequence (O96935 whole entry): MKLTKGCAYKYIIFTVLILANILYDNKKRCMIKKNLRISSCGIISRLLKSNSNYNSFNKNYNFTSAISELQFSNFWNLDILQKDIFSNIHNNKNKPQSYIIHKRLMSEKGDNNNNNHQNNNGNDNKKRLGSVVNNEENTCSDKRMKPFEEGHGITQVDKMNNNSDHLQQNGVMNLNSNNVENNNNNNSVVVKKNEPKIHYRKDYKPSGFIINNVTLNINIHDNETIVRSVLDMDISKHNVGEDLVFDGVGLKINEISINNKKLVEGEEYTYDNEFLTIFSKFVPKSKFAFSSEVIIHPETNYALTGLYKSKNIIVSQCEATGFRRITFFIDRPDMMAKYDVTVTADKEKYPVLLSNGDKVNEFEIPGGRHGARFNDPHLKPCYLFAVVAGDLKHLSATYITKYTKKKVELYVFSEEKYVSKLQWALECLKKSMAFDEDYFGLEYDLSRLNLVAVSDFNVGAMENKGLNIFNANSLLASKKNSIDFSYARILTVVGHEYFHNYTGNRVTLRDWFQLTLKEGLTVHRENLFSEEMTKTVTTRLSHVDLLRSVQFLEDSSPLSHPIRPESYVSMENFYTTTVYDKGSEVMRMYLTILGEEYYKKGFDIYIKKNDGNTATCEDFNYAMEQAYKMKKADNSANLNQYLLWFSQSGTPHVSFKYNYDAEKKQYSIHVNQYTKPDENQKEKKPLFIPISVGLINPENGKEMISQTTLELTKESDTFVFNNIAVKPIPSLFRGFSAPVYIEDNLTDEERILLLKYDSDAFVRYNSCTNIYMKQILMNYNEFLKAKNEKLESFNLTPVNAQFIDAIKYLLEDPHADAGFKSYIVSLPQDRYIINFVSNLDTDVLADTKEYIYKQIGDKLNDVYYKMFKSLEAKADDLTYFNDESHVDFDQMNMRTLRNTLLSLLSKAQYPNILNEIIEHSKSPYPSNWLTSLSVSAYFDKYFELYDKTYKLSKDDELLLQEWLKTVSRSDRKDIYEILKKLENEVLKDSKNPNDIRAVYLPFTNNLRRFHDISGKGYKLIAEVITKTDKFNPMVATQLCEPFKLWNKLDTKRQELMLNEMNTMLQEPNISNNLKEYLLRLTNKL
As to the kind of experiment: malaria alanyl aminopeptidase activity blockers – biochemical, fluorogenic H-Leu-NHMec substrate, 1536-well (AID 1445). Details: species or system Plasmodium falciparum 3D7, 3D7.

The target of test [3] is Trypsin (Sus scrofa, UniProt P00761). As to the kind of experiment: trypsin protease activity blockade – biochemical, quenched peptide fluorescence, cherry-pick, selectivity assay for Rce1 protease inhibitor project, dose response (AID 488789).
Chain of Trypsin (P00761 whole entry): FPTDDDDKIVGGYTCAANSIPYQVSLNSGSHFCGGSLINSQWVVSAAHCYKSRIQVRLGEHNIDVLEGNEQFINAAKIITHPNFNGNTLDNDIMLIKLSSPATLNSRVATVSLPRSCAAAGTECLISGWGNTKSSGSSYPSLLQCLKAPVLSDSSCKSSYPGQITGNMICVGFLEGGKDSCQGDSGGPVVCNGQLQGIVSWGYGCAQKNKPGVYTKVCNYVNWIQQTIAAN
In test [4] the target is DNA dC->dU-editing enzyme APOBEC-3A (Homo sapiens, UniProt P31941). Briefly: Dose Response confirmation of small molecule APOBEC3A DNA Deaminase Inhibitors via a fluorescence-based single-stranded DNA deaminase assay. [Related pubchem assays (depositor defined):AID493011, AID493024]. The test is classed as functional.
Chain of DNA dC->dU-editing enzyme APOBEC-3A (P31941 whole entry): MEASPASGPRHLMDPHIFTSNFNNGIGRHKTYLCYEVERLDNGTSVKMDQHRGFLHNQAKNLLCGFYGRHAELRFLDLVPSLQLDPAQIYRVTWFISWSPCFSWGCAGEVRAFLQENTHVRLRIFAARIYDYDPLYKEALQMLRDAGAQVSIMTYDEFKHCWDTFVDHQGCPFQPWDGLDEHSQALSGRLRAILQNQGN
For test [5], the target named is DNA dC->dU-editing enzyme APOBEC-3G (Homo sapiens, UniProt Q9HC16). The test is classed as functional.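 Further: Dose-response counterscreen measuring inhibition of APOBEC3G DNA deaminase activity, run while confirming APOBEC3A inhibitors.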
Chain of DNA dC->dU-editing enzyme APOBEC-3G (Q9HC16 whole entry): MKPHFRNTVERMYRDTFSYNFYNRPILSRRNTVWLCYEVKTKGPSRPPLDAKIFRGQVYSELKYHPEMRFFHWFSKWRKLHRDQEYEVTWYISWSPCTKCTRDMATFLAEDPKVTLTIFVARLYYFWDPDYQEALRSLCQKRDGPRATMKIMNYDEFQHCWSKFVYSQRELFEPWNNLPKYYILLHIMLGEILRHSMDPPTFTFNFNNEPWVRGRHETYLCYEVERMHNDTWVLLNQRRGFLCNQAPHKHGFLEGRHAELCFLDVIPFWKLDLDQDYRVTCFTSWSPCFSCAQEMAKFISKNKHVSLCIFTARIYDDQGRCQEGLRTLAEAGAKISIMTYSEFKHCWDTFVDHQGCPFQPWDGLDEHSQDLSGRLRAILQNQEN
The target of test [6] is T3, Alkaline phosphatase, tissue-nonspecific isozyme (Homo sapiens, UniProt P05186).
T3 sequence (P05186 whole entry): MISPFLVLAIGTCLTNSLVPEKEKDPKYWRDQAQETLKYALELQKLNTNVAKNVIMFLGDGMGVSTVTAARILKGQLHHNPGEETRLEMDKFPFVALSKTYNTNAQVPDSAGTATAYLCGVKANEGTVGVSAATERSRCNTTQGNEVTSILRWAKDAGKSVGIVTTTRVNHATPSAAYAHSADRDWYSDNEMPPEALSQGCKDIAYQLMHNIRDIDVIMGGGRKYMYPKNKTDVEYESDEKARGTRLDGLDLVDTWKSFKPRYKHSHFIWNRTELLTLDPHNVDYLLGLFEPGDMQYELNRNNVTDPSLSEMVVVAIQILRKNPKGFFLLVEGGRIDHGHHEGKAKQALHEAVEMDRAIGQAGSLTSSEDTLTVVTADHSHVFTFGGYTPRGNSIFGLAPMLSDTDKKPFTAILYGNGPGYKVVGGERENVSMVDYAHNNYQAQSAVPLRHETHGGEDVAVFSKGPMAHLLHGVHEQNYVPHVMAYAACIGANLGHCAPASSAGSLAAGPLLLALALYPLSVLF
As to the kind of experiment: potency against alkaline phosphatase TNAP – biochemical, luminescent, dose response, SAR follow-up (AID 1056).

Test [7] concerns the target Glyceraldehyde-3-phosphate dehydrogenase (Homo sapiens, UniProt P04406).

Chain of Glyceraldehyde-3-phosphate dehydrogenase (P04406 whole entry): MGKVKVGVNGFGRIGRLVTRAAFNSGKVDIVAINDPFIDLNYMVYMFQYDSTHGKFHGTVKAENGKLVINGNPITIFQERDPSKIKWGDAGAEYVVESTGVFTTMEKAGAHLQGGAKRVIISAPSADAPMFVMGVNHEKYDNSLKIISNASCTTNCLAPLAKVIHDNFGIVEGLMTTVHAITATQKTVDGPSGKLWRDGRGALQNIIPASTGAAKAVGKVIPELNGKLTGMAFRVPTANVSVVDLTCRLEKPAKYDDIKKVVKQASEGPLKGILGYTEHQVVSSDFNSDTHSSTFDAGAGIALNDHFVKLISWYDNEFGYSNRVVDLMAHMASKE

As for `Cc1ccc(S(=O)(=O)NNC(=O)c2sc3nc(C)cc(C)c3c2-n2cccc2)cc1`, the EC50 in test [1] is > 260 µM (inactive). In test [2], the IC50 is 26.9 µM (active). For the compound `Cc1cc2nn(-c3cccc4ccccc34)nc2cc1NC(=O)c1cccs1`, the AC50 in test [3] was 8.06 µM (active).

`COc1ccc(-c2[nH]nc3c2C2(C(=O)N(CC(=O)O)c4ccccc42)C(C#N)=C(N)O3)cc1OC` (stereo not drawn): the 50% inhibitory concentration (IC50) in test [2] was 43.3 µM (active). Turning to `CNC(=O)/C(C#N)=C\c1ccc(CNS(=O)(=O)c2ccc(Cl)cc2)o1`, the figures for the IC50 in test [4] and in test [5] were 3.02 µM (active) and 2.81 µM (active), respectively. `CC(C)C(CO)N1CCN(Cc2ccccc2)CCC1=O` (stereo not drawn): the IC50 was 8.79 µM (active) in test [4] and 10.1 µM (active) in test [5].

With `Cc1ccc(-c2ccc(C(=O)O)[nH]2)cc1`, the IC50 in test [6] was > 100 µM (inactive); in test [7] it was > 100 µM (not active). For the compound `Cc1nc(-c2cccnc2)c[nH]1`, the IC50 in test [6] is > 100 µM (inactive); in test [7] it was > 100 µM (not active). `O=C(O)COc1ccc(/C=N/n2c(COc3ccccc3)nc3ccccc3c2=O)cc1`: the IC50 in test [2] was 8.94 µM (active).

The values above are taken from ChEMBL document CHEMBL1201862, “PubChem BioAssay data set” (2004).
